Assay results from ChEMBL document CHEMBL5260836, “Combating Autoimmune Diseases With Retinoic Acid Receptor-Related Orphan Receptor-γ (RORγ or RORc) Inhibitors: Hits and Misses” (J Med Chem, 2018).
Converted amounts (≈) assume the structure as drawn.

What was measured:
[1] = target: T1, Nuclear receptor ROR-gamma (Homo sapiens, UniProt P51449); experiment: Inverse agonist activity at human GAL4-RORgamma […] expressed in HEK293 cells measured after 24 hrs by ligand binding assay; type: cell-based
T1 sequence (P51449 whole entry): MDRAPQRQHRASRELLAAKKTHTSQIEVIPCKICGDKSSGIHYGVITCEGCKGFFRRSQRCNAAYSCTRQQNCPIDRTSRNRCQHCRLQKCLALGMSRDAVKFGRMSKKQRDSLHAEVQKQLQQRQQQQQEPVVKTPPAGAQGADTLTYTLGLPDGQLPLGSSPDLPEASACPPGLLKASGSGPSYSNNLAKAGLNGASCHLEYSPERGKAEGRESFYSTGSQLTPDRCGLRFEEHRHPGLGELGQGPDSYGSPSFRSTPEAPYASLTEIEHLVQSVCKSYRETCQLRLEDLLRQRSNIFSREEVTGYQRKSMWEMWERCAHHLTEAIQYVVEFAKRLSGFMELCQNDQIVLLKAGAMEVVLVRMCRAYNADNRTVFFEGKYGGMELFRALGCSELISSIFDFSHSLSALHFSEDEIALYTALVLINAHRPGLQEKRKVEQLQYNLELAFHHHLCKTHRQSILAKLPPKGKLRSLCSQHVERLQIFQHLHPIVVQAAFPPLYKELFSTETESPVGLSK

[2] = Suppression of Th17 polarization in human CD4+ T cells cultured under Th17-skewing conditions measured after 4 days
[3] = target: T1, Nuclear receptor ROR-gamma; experiment: Inhibition of human GAL4-fused RORgamma LBD transfected in HEK293T cell measured after 24 hrs by luciferase reporter assay; type: cell-based
Homo sapiens [4] = organism: Homo sapiens; experiment: tissue or blood; conditions: 18 h
Description: Reduction of IL22 level in human whole blood measured after 18 hrs by ELISA

Homo sapiens [5] = organism: Homo sapiens; experiment: tissue or blood; conditions: 18 h; remark: listed apart in the source
Description: Reduction of IL17F level in human whole blood measured after 18 hrs by ELISA

Homo sapiens [6] = organism: Homo sapiens; experiment: tissue or blood; conditions: 18 h; remark: listed apart in the source
Description: Reduction of IL17 level in human whole blood measured after 18 hrs by ELISA

cells [7] = conditions: Homo sapiens, PBMC
Description: Inhibition of IL-17 production in human PBMC

[8] = Oral bioavailability in mouse; type: ADME, organism-based; conditions: in vivo
[9] = Half life in mouse; type: ADME, organism-based; conditions: in vivo
cells [10] = conditions: Homo sapiens, PBMC, 144 h
Description: Decrease in Tc17 cell differentiation in CD8+ T cells from human PBMC cells cultured under the Tc17-skewing conditions measured after 6 days

[11] = target: T1, Nuclear receptor ROR-gamma; experiment: Inhibition of transactivation of Gal4-tagged RORgamma (unknown origin) transfected in human HG5LN cells incubated for 18 hrs by luciferase reporter gene assay; type: cell-based
[12] = Unbound fraction in human plasma; type: ADME, cell-free
[13] = Oral bioavailability in rat; type: ADME, organism-based; conditions: in vivo
[14] = Solubility of the compound; type: physicochemical
Homo sapiens [15] = organism: Homo sapiens; experiment: tissue or blood
Description: Inhibition of IL-17A secretion in healthy human whole blood

[16] = Half life in rat; type: ADME; conditions: in vivo
[17] = Half life in dog; type: ADME, Canis lupus familiaris; conditions: in vivo
Mus musculus [18] = organism: Mus musculus; experiment: animal or person; conditions: po, read-out: INH
Description: Anti-inflammatory activity against mouse EAE model assessed as reduction in EAE score at 100 mg/kg, po relative to control

Homo sapiens [19] = organism: Homo sapiens; experiment: tissue or blood; remark: listed apart in the source
Description: Inhibition of IL-17A secretion in psoriatic human whole blood

cells [20] = conditions: Homo sapiens, PBMC; remark: listed apart in the source
Description: Inhibition of IL-17A secretion in human PBMC cells

[21] = Oral bioavailability in dog; type: ADME, organism-based, Canis lupus familiaris; conditions: in vivo
cells [22] = conditions: Homo sapiens, Th17
Description: Inhibition of IL-17 production in human Th17 cells

[23] = target: T2, Nuclear receptor ROR-gamma (Homo sapiens) (UniProt P51449); experiment: Inverse agonist activity at GAL4-RORgammat LBD (unknown origin) expressed in HEK293 cells at 1 uM measured after 24 hrs by nuclear receptor assay relative to control; type: cell-based
T2 sequence (whole entry): T1 sequence (P51449 whole entry)

[24] = target: T1, Nuclear receptor ROR-gamma; experiment: Inhibition of human GAL4-fused RORgammat LBD transfected in Escherichia coli BL21(DE3) cell measured after 16 hrs by HTRF assay
[25] = target: T1, Nuclear receptor ROR-gamma; experiment: Inhibition of human RORgammat expressed in COS7 cells by luciferase assay; type: cell-based
[26] = target: T1, Nuclear receptor ROR-gamma; experiment: Inhibition of RORgammat LBD (unknown origin) expressed in Sf21 cells assessed as fluorescence signal by TR-FRET assay
cells [27] = conditions: Homo sapiens, PBMC, 96 h
Description: Inhibition of IL17 production in human PBMC cells measured after 4 days by enzyme-linked immunosorbent assay

[28] = Unbound fraction in rat blood; type: ADME, tissue-based
[29] = target: T1, Nuclear receptor ROR-gamma; experiment: Inverse agonist activity at His-tagged human RORgammat LBD assessed as inhibition of biotinylated RIP140 co-activator peptide binding incubated for 1 hr by TR-FRET assay
[30] = Unbound fraction in human blood; type: ADME, tissue-based
Homo sapiens [31] = organism: Homo sapiens; experiment: Inhibition of IL-17 production in human whole blood measured after 72 hrs by ELISA; type: functional
[32] = target: T1, Nuclear receptor ROR-gamma; experiment: Antagonist activity at RORgammat LBD (unknown origin) assessed as fluorescent polarization signal measured in presence of fluorescein-labeled LXR agonist T0901317 after 4 hrs by competitive binding assay
Mus musculus [33] = experiment: Anti-arthritis activity against glucose-6-phosphate isomerase-induced arthritis DBA/1 mouse model assessed as reduction in paw swelling clinical score at 1000 mg/kg, po; type: functional

Q: For CCOC(=O)CC1CN(Cc2ccc(-c3ccc(C(O)(C(F)(F)F)C(F)(F)F)cc3)cc2)CCN1Cc1ccncc1 (stereo not given), which IC50 [1] is on record?
A: < 1000 nM

Q: Which results are given for COC(=O)[C@]12CCC(C)(C)CC1C1C(=O)C=C3[C@@]4(C)C=C(C#N)C(=O)[C@@](C)(O)[C@@H]4CC[C@@]3(C)[C@]1(C)CC2 (stereo not given in full)?
A: IC50 [2]: 18 nM; IC50 [3]: 115 nM

Q: With COc1ccc2c(n1)CCN(C(=O)[C@H]1C[C@@H](CC(=O)O)C1)[C@H]2C(=O)Nc1cc(F)c2c(c1)CCC2(C)C as the molecule, how does the IC50 (Homo sapiens [4]) read?
A: 1600 nM

Q: What about the IC50 (Homo sapiens [5]) of the same molecule?
A: 430 nM

Q: What about the IC50 (Homo sapiens [6]) of the same molecule?
A: 120 nM

Q: And the IC50 (cells [7])?
A: 102 nM

Q: What about the IC50 [2] of the same molecule?
A: 28 nM

Q: What about the bioavailability [8] of the same molecule?
A: 96%

Q: And the half-life [9]?
A: > 4 h

Q: What about the IC50 (cells [10]) of the same molecule?
A: 9.5 nM

Q: With Cc1ccc(N(CC(C)C)S(=O)(=O)c2ccc3c(c2)[nH]c(=O)n3CC2CCOCC2)c(C)c1 as the molecule, how does the IC50 [11] read?
A: 19 nM

Q: What does the source list for CCS(=O)(=O)c1ccc(CNC(=O)c2cnc3c(c2)CN(C[C@H]2CC[C@H](C(F)(F)F)CC2)[C@H]3C(C)C)nc1?
A: fraction unbound [12]: 0.005; bioavailability [13]: 64%; solubility [14]: 17 µM (≈ 9.4 µg/mL); IC50 (Homo sapiens [15]): 207 nM; half-life [16]: 6 h; half-life [17]: 15 h; inhibition in vivo at 100 mg/kg (Mus musculus [18]): > 95%; IC50 (Homo sapiens [19]): 250 nM; IC50 (cells [20]): 21 nM; bioavailability [21]: 66%

Q: With COc1c(NC(=O)c2cccc(C#N)c2)cnc2c1c(C1CCN(C(=O)C3CCCC3)CC1)cn2C as the molecule, how does the IC50 (cells [22]) read?
A: 29.8 nM

Q: For NC(=O)Cc1ccc(CNc2ncnc(N3CCOC[C@@H]3c3ccc(C(F)(F)F)cc3)c2F)cc1, which inhibition [23] is on record?
A: 80%

Q: Which IC50 [24] does the source give for O=C(O)c1ccc(-c2nn(C(=O)c3c(Cl)cccc3C(F)(F)F)c3cccnc23)c(F)c1 here?
A: 2 nM

Q: With CCS(=O)(=O)c1ccc(CC(=O)Nc2cc(Cl)c(C3(c4noc(-c5ccc(F)cc5)n4)CC3)c(Cl)c2)cc1 as the molecule, how does the IC50 (cells [7]) read?
A: 6.6 nM

Q: And the IC50 [25]?
A: 2.1 nM

Q: Which IC50 [26] does the source give for COc1cc2c(cc1N1CCOCC1)CC(Cc1cccc(C(F)(F)F)c1)C2=O (stereo not given) here?
A: < 500 nM

Q: With O=C(O)c1ccc(-c2nn(C(=O)c3c(Cl)cccc3C(F)(F)F)c3ccccc23)cc1 as the molecule, how does the IC50 (cells [27]) read?
A: 39.6 nM

Q: With Cc1ncc(C(=O)Nc2cn3ccnc3c(CN3CCN(C(=O)C4CCCC4)[C@@H](C)C3)c2C)cn1 as the molecule, how does the bioavailability [13] read?
A: 23%

Q: And the fraction unbound [28]?
A: 0.256

Q: And the IC50 [29]?
A: 13 nM

Q: What about the fraction unbound [30] of the same molecule?
A: 0.312

Q: And the IC50 (Homo sapiens [31])?
A: 168 nM

Q: Which IC50 [32] does the source give for C[C@H]1CN(Cc2cncc(NS(=O)(=O)c3c(Cl)cc(Cl)cc3Cl)c2)CCN1C(=O)C1CCCC1 here?
A: 89 nM

Q: What does the source list for Cc1cnccc1-c1nc(-c2ccccc2)c2c(n1)[C@]1(C)C=C(C#N)C(=O)[C@H](C)[C@H]1CC2?
A: IC50 [2]: 39 nM; IC50 [3]: 40 nM

Q: For CCS(=O)(=O)c1ccc(CNC(=O)c2cc3c(s2)C2(CCN([C@H](C)c4cnc(C(F)(F)F)nc4)CC2)O[C@@H](C)C3)nc1, which inhibition in vivo at 1000 mg/kg (Mus musculus [33]) is on record?
A: 75%

Q: What about the IC50 (cells [20]) of the same molecule?
A: 20 nM

Q: For O=C(Nc1ccc2c(c1)CN(S(=O)(=O)c1cccc(C(F)(F)F)c1)CCC2)c1c(F)cccc1Cl, which IC50 (cells [22]) is on record?
A: 40 nM
